Assay results: patent publication EP1247803A2, “Indolinone compounds suitable for modulation of protein kinases” (Sugen, Inc., priority 1996, dated 1998)

Assays:
[1] = target: T1, FLK-1 receptor (Mus musculus, UniProt P35918); assay: FLK-1 ELISA (kinase activity of the FLK-1 receptor in FLK-1/NIH3T3 cells, VEGF stimulated); format: cell-based
T1 construct: expressed in transfected cells; host or cells: NIH3T3 C7#3
Method in brief: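 An ELISA using affinity-purified rabbit anti-FLK-1 antiserum on anti-rabbit IgG-coated plates measured VEGF-stimulated FLK-1 kinase activity. NIH3T3 C7#3 cells carrying FLK-1 were serum-starved (0.1% FBS) overnight, then exposed to compound (final 1:200 dilution, 0.5% DMSO) for two hours at 37 °C.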

[2] = system: MET; assay: MET biochemical kinase assay; design: species or system human; concentration or dose not given beside the values
Method in brief: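 Plates coated with anti-rabbit Fc bind a rabbit anti-MET antibody that captures receptor from cell lysates; unbound protein is washed off before compound and ATP-containing kinase buffer go in.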

T1 sequence (P35918 20-1345): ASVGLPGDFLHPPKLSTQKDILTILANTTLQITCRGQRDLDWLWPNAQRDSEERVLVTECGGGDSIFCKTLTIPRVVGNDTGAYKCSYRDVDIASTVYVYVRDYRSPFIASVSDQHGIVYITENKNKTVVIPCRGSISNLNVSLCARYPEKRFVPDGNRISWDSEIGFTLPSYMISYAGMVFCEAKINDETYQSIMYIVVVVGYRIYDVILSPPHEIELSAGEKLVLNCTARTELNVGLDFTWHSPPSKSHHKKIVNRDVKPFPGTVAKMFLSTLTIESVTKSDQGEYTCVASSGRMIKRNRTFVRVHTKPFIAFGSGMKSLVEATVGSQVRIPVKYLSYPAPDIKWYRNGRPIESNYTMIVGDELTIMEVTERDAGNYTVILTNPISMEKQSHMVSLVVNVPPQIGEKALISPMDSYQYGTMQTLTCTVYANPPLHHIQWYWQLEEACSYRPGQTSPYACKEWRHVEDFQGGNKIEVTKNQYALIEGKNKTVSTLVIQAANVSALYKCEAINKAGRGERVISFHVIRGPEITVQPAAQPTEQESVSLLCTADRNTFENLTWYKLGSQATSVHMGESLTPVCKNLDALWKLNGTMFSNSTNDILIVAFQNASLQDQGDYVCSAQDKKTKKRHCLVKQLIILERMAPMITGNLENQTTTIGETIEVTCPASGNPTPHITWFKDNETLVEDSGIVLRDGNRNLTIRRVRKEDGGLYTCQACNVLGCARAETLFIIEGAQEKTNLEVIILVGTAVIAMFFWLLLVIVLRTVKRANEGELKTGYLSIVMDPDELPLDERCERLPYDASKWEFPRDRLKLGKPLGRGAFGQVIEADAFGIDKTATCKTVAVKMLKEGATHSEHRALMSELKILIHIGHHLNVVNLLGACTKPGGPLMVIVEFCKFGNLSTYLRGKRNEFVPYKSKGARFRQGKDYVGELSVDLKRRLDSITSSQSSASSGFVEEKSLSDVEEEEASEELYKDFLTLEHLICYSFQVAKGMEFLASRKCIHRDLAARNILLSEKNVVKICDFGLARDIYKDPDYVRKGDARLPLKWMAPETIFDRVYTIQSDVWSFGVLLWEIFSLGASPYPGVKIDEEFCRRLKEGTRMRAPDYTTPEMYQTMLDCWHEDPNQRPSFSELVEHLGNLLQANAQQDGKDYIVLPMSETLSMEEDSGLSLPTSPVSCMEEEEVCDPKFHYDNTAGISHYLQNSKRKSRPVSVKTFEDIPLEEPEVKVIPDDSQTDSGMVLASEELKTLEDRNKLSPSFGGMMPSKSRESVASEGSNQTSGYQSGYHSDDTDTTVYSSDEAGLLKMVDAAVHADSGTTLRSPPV

SMILES | Fik Kinase %Inhibition [1] | Met Kinase % Inhibition [2]
CN(C)c1ccc(C=C2C(=O)Nc3ccc(I)cc32)cc1 [10719/B08] | 4.0% | 33.2%
O=C1Nc2ccc(I)cc2C1=Cc1ccc(O)cc1 [10719/B07] | 12.5% | 52.2%
COC(=O)c1[nH]c(C)c(C=C2C(=O)Nc3ccc(S(=O)(=O)N4CCOCC4)cc32)c1C(=O)OC [10718/F07] | 16.5% | 67.9%
O=C1Nc2c(Br)cc(Br)cc2C1=Cc1ccc(O)cc1 [10719/A07] | 21.3% | 68.1%
COc1cc(OC)c(C=C2C(=O)Nc3c(Br)cc(Br)cc32)c(OC)c1 [10719/A06] | 14.0% | -7.0%
O=C1Nc2ccc(CCCl)cc2C1=Cc1ccc(Cl)c([N+](=O)[O-])c1 [10718/G08] | 6.1% | 17.5%
CCOc1ccc(C=C2C(=O)Nc3ccc(I)cc32)cc1OC [10719/B02] | 11.5% | 47.0%
CCc1c(C)[nH]c(C=C2C(=O)Nc3ccc(I)cc32)c1C [10719/B05] | 17.7% | 33.6%
O=C1Nc2ccc(I)cc2C1=Cc1c[nH]c2ccccc12 [10717/B06] | 5.4% | 89.5%
CCOC(=O)c1c(C)[nH]c(C=C2C(=O)Nc3ccc(CCCl)cc32)c1C [10718/G02] | -2.5% | 67.7%
COc1cc(Br)c(O)c(C=C2C(=O)Nc3ccc(CCCl)cc32)c1 [10718/G03] | -4.7% | 77.9%
O=C1Nc2ccc(I)cc2C1=Cc1ccc(F)cc1Cl [10719/B09] | 11.3% | 23.5%
O=C1Nc2ccc(S(=O)(=O)N3CCOCC3)cc2C1=Cc1ccc(Cl)c([N+](=O)[O-])c1 [10718/F08] | 15.3% | 28.4%
O=C1Nc2ccc(I)cc2C1=Cc1ccc(F)cc1C(F)(F)F [10719/B11] | 11.2% | 36.5%
CCc1c(C)[nH]c(C=C2C(=O)Nc3c(Br)cc(Br)cc32)c1C [10719/A05] | 10.0% | 39.6%
O=C1Nc2ccc(I)cc2C1=Cc1ccc(O)c(O)c1 [10719/B03] | 14.2% | 85.8%
COc1cc(OC)c(C=C2C(=O)Nc3ccc(I)cc32)c(OC)c1 [10719/B06] | 21.3% | 22.5%
O=C1Nc2ccc(CCCl)cc2C1=Cc1ccc2ccccc2c1O [10718/G04] | 1.8% | 78.1%
CCOC(=O)c1cc(C=C2C(=O)Nc3ccc(CCCl)cc32)oc1C [10718/G06] | 9.8% | 61.0%
O=C1Nc2c(Br)cc(Br)cc2C1=Cc1ccc(F)cc1C(F)(F)F [10719/A11] | 7.4% | 34.9%

SMILES | Fik Kinase %Inhibition [1] | Met Kinase % Inhibition [2]
Cn1cccc1C=C1C(=O)Nc2ccc(I)cc21 [10717/B04] | -18.3% | 70.0%
O=C1Nc2ccc(S(=O)(=O)N3CCOCC3)cc2C1=Cc1ccco1 [10718/F10] | 17.9% | 23.7%
COC(=O)c1[nH]c(C)c(C=C2C(=O)Nc3ccc(CCCl)cc32)c1C(=O)OC [10718/G07] | 11.4% | 52.0%
CCOC(=O)c1c(C)[nH]c(C=C2C(=O)Nc3ccc(S(=O)(=O)N4CCOCC4)cc32)c1C [10718/F02] | 20.1% | 66.7%
O=C1Nc2ccc(CCCl)cc2C1=Cc1ccco1 [10718/G10] | 7.1% | 10.8%
CCc1c(C)[nH]c(C=C2C(=O)Nc3ccc(Br)c(C)c32)c1C [10719/C05] | 25.6% | 35.5%
Cc1c(Br)ccc2c1C(=Cc1ccc(F)cc1Cl)C(=O)N2 [10719/C09] | 23.5% | 8.9%
COc1ccc(C=C2C(=O)Nc3ccc(I)cc32)c(OC)c1 [10719/B04] | 24.9% | 38.4%
Cc1c(O)ccc(C=C2C(=O)Nc3ccc(CCCl)cc32)c1O [10718/G09] | -12.8% | 27.0%
COc1ccc(C=C2C(=O)Nc3ccc(Br)c(C)c32)c(OC)c1 [10719/C04] | 59.9% | 14.7%
O=C1Nc2ccc(I)cc2C1=Cc1cccc([N+](=O)[O-])c1 [10719/B10] | 1.1% | 53.4%
O=C1Nc2ccc(S(=O)(=O)N3CCOCC3)cc2C1=Cc1ccc([N+](=O)[O-])o1 [10718/F11] | 10.1% | 31.3%
CCOc1ccccc1C=C1C(=O)Nc2ccc(I)cc21 [10717/B02] | 5.0% | 87.5%
CCOC(=O)CCc1c(C(=O)OCC)[nH]c(C=C2C(=O)Nc3ccc(CCCl)cc32)c1CC(=O)OCC [10718/G05] | 3.7% | 60.3%
Cc1c(Br)ccc2c1C(=Cc1ccc(O)c(O)c1)C(=O)N2 [10719/C03] | 15.3% | 69.1%
CCOC(=O)c1cc(C=C2C(=O)Nc3ccc(S(=O)(=O)N4CCOCC4)cc32)oc1C [10718/F06] | 18.3% | 42.5%
CN(C)c1ccc(C=C2C(=O)Nc3c(Br)cc(Br)cc32)cc1 [10719/A08] | 11.9% | 75.5%
CCOc1ccc(C=C2C(=O)Nc3ccc(Br)c(C)c32)cc1OC [10719/C02] | 4.1% | 41.3%
O=C1Nc2ccc(S(=O)(=O)N3CCOCC3)cc2C1=Cc1ccc2ccccc2c1O [10718/F04] | 9.4% | 78.1%
Cc1c(O)ccc(C=C2C(=O)Nc3ccc(S(=O)(=O)N4CCOCC4)cc32)c1O [10718/F09] | -3.0% | 52.7%
